Reference: patent US12527776B2, “Treatment of ciliopathies using inhibitors of glucosylceramide synthase (GCS)” (GENZYME CORPORATION, priority 2019, dated 2026)

Key:
Format in all cases: in vivo, human
[1] = Phase 1 Study 1 Part 2: PK with and without a high-fat meal; details: 5 mg single oral dose
Source text: (§1) Study 1 was a 2-part single-center trial in healthy adult male volunteers.
Part 1 of the study enrolled and randomized 55 healthy men (placebo, n=14; 2-, 5-, 15, 25-, 50, and 100-mg doses, n=6 each; 150-mg dose, n=5). Eight healthy men participated in Part 2.
After a 7-day washout period, participants were crossed over to the other condition.

[2] = system: plasma GL-1, GL-3, and GM3 concentrations; assay: Phase 1 Study 2: pharmacodynamic endpoints (plasma GL-1, GL-3, GM3)
Protocol: The study enrolled and randomized 36 healthy adults (19 men and 17 women) (n=9 each to group).
Pharmacodynamic endpoints (plasma GL-1, GL-3, and GM3 concentrations) were assessed on Days 1-5, 8, 11, 13, and 14, at 0 hours […]; and on Day 15, at 24 hours after the Day 14 dose.

[3] = Phase 1 studies: safety and tolerability; details: multiple ascending dose study, vs placebo, any dose
Protocol: In all studies, safety profile was assessed by monitoring treatment-emergent adverse events (TEAEs) through 10 days after last dose of study medication, including serious adverse events [SAEs]), ECG monitoring, laboratory values, and physical examinations.

[4] = Phase 1 Study 1 Part 1: ascending single-dose pharmacokinetics in healthy volunteers
Source text: Compound 2 is also known as venglustat.
as §1
Part 1 of the study enrolled and randomized 55 healthy men (placebo, n=14; 2-, 5-, 15, 25-, 50, and 100-mg doses, n=6 each; 150-mg dose, n=5). Eight healthy men participated in Part 2. […]

[5] = across the 3 dose groups (5, 10, 20 mg once daily)

SMILES: CC(C)(NC(=O)O[C@@H]1CN2CCC1CC2)c1csc(-c2ccc(F)cc2)n1 [Compound 2, (S)-quinuclidin-3-yl 2-(2-(4-fluorophenyl)thiazol-4-yl)propan-2-ylcarbamate]
- effect of high-fat meal on exposure compared with fasting [1]: no effect
- Mean estimated plasma GL-1 reductions from baseline attributable to Ctrough ([2]; 5 mg group, Ctrough 19.0 ng/mL): 67.0%
- Mean estimated plasma GL-1 reductions from baseline attributable to Ctrough ([2]; 10 mg group, Ctrough 47.5 ng/mL): 74.4%
- Mean estimated plasma GL-1 reductions from baseline attributable to Ctrough ([2]; 20 mg group, Ctrough 69.9 ng/mL): 76.3%
- subjects with GL-1 below LLOQ ([2]; Day 15, 5 mg group (n=9)): 3 subjects
- subjects with GL-3 below LLOQ ([2]; Day 15, 5 mg group (n=9)): 9 subjects
- Mean calculated GL-1 reductions from baseline ([2]; Day 15, 5 mg once daily): 41.9%
- subjects with GL-1 below LLOQ ([2]; Day 15, 10 mg group (n=9)): 5 subjects
- subjects with GL-3 below LLOQ ([2]; Day 15, 10 mg group (n=9)): 7 subjects
- subjects with GM3 below LLOQ ([2]; Day 15, 10 mg group (n=9)): 1 subjects
- Mean calculated GL-1 reductions from baseline ([2]; Day 15, 10 mg once daily): 69.6%
- subjects with GL-1 below LLOQ ([2]; Day 15, 20 mg group (n=9)): 9 subjects
- subjects with GL-3 below LLOQ ([2]; Day 15, 20 mg group (n=9)): 9 subjects
- subjects with GM3 below LLOQ ([2]; Day 15, 20 mg group (n=9)): 2 subjects
- Mean calculated GL-1 reductions from baseline ([2]; Day 15, 20 mg once daily): 74.6%
- plasma GL-1 levels vs baseline [2, 5]: decreased from baseline time- and dose-dependently
- plasma GM3 levels vs baseline [2, 5]: decreased from baseline time- and dose-dependently
- Day on which maximal sustained GM3 decreases started ([2]; all dose groups): 13 days
- ECG parameters [3]: no ECG parameters changed statistically significantly
- CL/F, Geometric mean ([4]; single oral dose 2 mg): 6.3 L/h
- CL/F, Mean ([4]; single oral dose 2 mg): 6.43 L/h
- CL/F, Geometric mean ([4]; single oral dose 5 mg): 5.8 L/h
- CL/F, Mean ([4]; single oral dose 5 mg): 5.86 L/h
- CL/F, Geometric mean ([4]; single oral dose 15 mg): 5.6 L/h
- CL/F, Mean ([4]; single oral dose 15 mg): 5.85 L/h
- CL/F, Geometric mean ([4]; single oral dose 25 mg): 5.0 L/h
- CL/F, Mean ([4]; single oral dose 25 mg): 5.18 L/h
- CL/F, Geometric mean ([4]; single oral dose 50 mg): 5.5 L/h
- CL/F, Mean ([4]; single oral dose 50 mg): 5.75 L/h
- CL/F, Geometric mean ([4]; single oral dose 100 mg): 5.3 L/h
- CL/F, Mean ([4]; single oral dose 100 mg): 5.38 L/h
- CL/F, Geometric mean ([4]; single oral dose 150 mg): 5.6 L/h
- CL/F, Mean ([4]; single oral dose 150 mg): 5.80 L/h
- median time of maximal plasma concentration (Cmax) ([4]; single oral doses of 2 to 150 mg): 3 to 5.5 h
